Data as given in US20220354835A1, “COMPOUNDS FOR DEGRADING TAU PROTEIN AGGREGATES AND USES THEREOF” (Aprinoia Therapeutics Limited, priority 2019, published 2022).

What was measured:
[1] = biological target: T1, heparin-induced aggregated tau (aTau), full-length 2N4R human Tau (Homo sapiens, UniProt P10636); experiment: In vitro fluorometric aTau binding assay; conditions: 0.04 μM aTau, serially diluted compound 10 to 0.00017 μM, 37° C. 1 hour, fluorescence
T1 construct: transformed with a full-length 2N4R tau expression plasmid; made in house; host or cells: E. coli BL21
T1 sequence (P10636 1-441 isoform P10636-8): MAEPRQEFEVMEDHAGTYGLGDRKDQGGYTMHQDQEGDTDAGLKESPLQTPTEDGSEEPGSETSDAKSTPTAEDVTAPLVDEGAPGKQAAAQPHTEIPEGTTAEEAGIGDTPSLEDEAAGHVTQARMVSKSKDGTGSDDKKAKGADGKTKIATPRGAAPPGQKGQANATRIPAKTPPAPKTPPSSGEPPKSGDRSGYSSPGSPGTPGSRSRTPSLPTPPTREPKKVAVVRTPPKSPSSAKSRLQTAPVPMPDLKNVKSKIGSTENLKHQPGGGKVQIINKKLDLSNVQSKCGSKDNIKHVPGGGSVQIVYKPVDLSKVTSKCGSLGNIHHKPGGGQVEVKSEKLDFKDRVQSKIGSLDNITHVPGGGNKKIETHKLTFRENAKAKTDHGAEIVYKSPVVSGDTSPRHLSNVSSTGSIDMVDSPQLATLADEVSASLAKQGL
Method: (A) Expression and purification of human Tau: 1 mM IPTG (Sangon Biotech, Cat. No A100487) was used to induce production of tau by bacteria (BL21, Invitrogen, Cat. No C600003) transformed with a full-length 2N4R tau expression plasmid. After 3 hours, cell pellet was resuspended in lysis buffer (100 mM PIPES, 1 mM EGTA, 1 mM MgSO4, pH 6.8) and lysed by sonication followed by centrifugation (15,000 rpm, 15 min, 4° C.). The supernatant was then placed in a boiling water bath for 20 min, followed by centrifugation (15,000 rpm, 15 min, 4° C.). Supernatant was loaded onto a Q-Sepharose® Fast Flow column (GE healthcare, Cat. No 17-0510-01), the flow-through fraction was loaded onto an SP-Sepharose® Fast Flow column (GE healthcare, Cat. No 17-0729-01), and tau protein was eluted with elution buffer (100 mM PIPES, 1 M NaCl, 1 mM EGTA, 1 mM MgSO4, 0.2 M NaCl, pH 6.8). Collected fractions of tau-containing eluates were pooled, concentrated and dialyzed against HEPES buffer (25 mM HEPES, 0.1 mM EDTA, 0.5 mM DTT, 100 mM NaCl, pH 7.2) and stored at −80° C. in small aliquots until use. Protein concentration was determined by UV absorption.
(B) Preparation of heparin-induced aggregated tau (aTau): 2 μM of tau prepared in 30 mM Tris-HCl, pH 7.5 buffer was incubated in tube with 15 μM heparin (Sigma, Cat. No H3149) at 37° C. for 24 hours.
(D) In vitro fluorometric aTau binding assays: 2 μM aTau was diluted to 0.04 μM with 30 mM Tris-HCl (pH 6.8), and then incubated with serially diluted compound (three-fold serial dilutions, from 10 to 0.00017 μM) in a 96-well plate (Corning, Cat. No 3573) at 37° C. for 1 hour. Fluorescence intensity (excitation/emission=370/500 nm) of APN-0729 was read by microplate spectrometer (EnSpire 2300, PerkinElmer). Compound Kd values were calculated using the following equation: Y=Bmax* X (Kd+X), where X is the concentration of compound; Y is the fluorescence signal of (compound+aTau)−(compound+DMSO); and Bmax is the maximum signal.

[2] = biological target: T2, Tau aggregates in P301L-Tau-FL-GFP HEK293 cells (Homo sapiens, UniProt P10636, P618L); experiment: Tau degradation assay (APNmAb005 ELISA-based Tau aggregation assay); format: cell-based; conditions: 1 μM of compound, 24 hours, P301L-Tau-FL-GFP HEK293 cells seeded with rTg4510 brain lysate; read-out: Activity (reduction of tau aggregates)
T2 construct: express full-length human tau T40 (2N4R) carrying the P301L mutation with a GFP tag; expressed in transfected cells
T2 sequence (P10636 1-441 isoform P10636-8 P301L): as the sequence (P10636 1-441 isoform P10636-8) above, with P301L counted along it
Method: (A). Cell-based model of Tau inclusion formation: Six month old rTg4510 mouse brain lysates were used as the source of tau seeds, prepared as described in Example 26 above. P301L-Tau-FL-GFP HEK293 cells represent HEK293 cells express full-length human tau T40 (2N4R) carrying the P301L mutation with a GFP tag (P301L-Tau-FL-GFP). 1×10^6 of P301L-Tau-FL-GFP HEK293 cells were cultured on a 6-well plate in culture medium containing DMEM/F-12 (Gibco) supplemented with 10% fetal bovine serum (FBS) (Gibco), 1% Penicillin-Streptomycin (Gibco) and 0.5 mg/ml geneticin (Thermo Fisher Scientific) for 24 hours to reach 70-90% confluency, indicating the cells were ready for transfection. 50 μg of 6-month-old rTg4510 mouse brain lysate was diluted in 400 μL of serum free medium and mixed with 16 μL of lipofectamine 3000 reagent (Thermo Fisher Scientific) diluted in 400 μl of serum free medium. A solution mixture of rTg4510 brain lysate and lipofectamine 3000 was incubated at room temperature for 25 min. The culture media were removed, and then a solution mixture of rTg4510 lysate and lipofectamine 3000 was added to the cells for transfection. The solution mixture was incubated at room temperature for five hours, followed by medium change to 10% fetal bovine serum (FBS). After two-day incubation, Tau aggregates (Tau spots) were induced and images were acquired by ImageXpress Micro Confocal high-content imaging system (Molecular Devices) as described in Example 52 above. Analysis was performed by two customized modules in MetaXpress software (Molecular Devices) for aggregated tau analysis. Output included cell numbers, numbers of tau spots, average intensity of tau spots, and average size of tau spots.
(B). Compound treatment: 100 μL of 3×10^4 cells comprising Tau aggregates, prepared as described above in step (A), were plated on a 96-well plate coated with poly-D-lysine (BD Biosciences) and cultured for 24 hours. Compounds to be tested were dissolved in culture medium containing 0.1% DMSO. Each of test compounds in the concentration of 1, 0.2 and 0.04 μM was added to the cells comprising Tau aggregates and incubated at 37° C. for 24 hours. After that, culture medium was removed, cells were washed with PBS solution and then lysed using 30 μL of lysis buffer (PBS containing 0.3% Triton X-100 and 400 mM NaCl) for one hour at 4° C., and then cell lysate was diluted by 170 μl of PBS containing 400 mM NaCl. Cell lysate was filtrated by a […] filtration plate (Pall) and applied for Tau aggregation assay.
(C). Control cell lysate: control cell lysate was collected from non-seeded cells.
(D). ELISA-based Tau aggregation assay: APNmAb005 ELISA kit for Tau aggregation assay was designed and developed to detect abnormal tau aggregates in buffered solution or cell lysate by using anti-Tau APNmab005 as capture and detection antibody. This antibody is a highly specific antibody bound to human tau aggregates accumulated in mammalian cells. APNmAb005 is recited in PCT Patent Application No. PCT/M2020/057415, filed Aug. 5, 2020, which is incorporated herein by reference.
0.15 μg of APNmAb005 in 100 mM sodium carbonate buffer (pH 9.6) was coated on a high-binding polystyrene 96-well microplate (Greiner Bio-One) at 4° C. overnight. The microplate was washed with PBS followed by treatment with Intercept (PBS) blocking buffer (LI-COR) at room temperature for 2 hours. After that, the microplate was washed with PBS, and then the cell lysate with compound treatment, prepared as described above in step (C), was added into each well of the microplate and incubated at room temperature for 2 hours. The microplate was washed with PBS and then incubated with HRP-conjugated secondary antibody APNmAb005 at room temperature for 3 hours. HRP-conjugated secondary antibody APNmAb005 was prepared using HRP conjugation kit (Abcam,ab102890). The microplate was then washed with PBS and incubated with 100 μL of horseradish peroxidase (HRP) substrate at room temperature. […]

Structure (SMILES): CN(C)c1ccc(-c2ccc(-c3nc4ccc(NCCOCCOc5ccc6c(c5)CN(C5CCC(=O)NC5=O)C6=O)cc4s3)cc2)cn1 (centres unmarked) [Compound 160313, 3-[6-[2-[2-[[2-[4-[6-(dimethylamino)pyridin-3-yl]phenyl]-1,3-benzothiazol-6-yl]amino]ethoxy]ethoxy]-3-oxo-1H-isoindol-2-yl]piperidine-2,6-dione]
- Kd [1]: 0.08 µM
- inhibition at 1 µM [2]: < 10%
